Measurements taken from PubChem BioAssay AID248 (DTP/NCI, 2004).
“And” between values parts separate entries of the source, which are not always exact repeats. Equal values may be shown once. Toxic doses and inconclusive results are not listed. No stated cut-off is given here; in the data, active means T/C of 150% or more; inactive means T/C below 125%.

Tested on: L1210 leukemia ip in BDF1 mice, survival T/C
Assay: NCI In Vivo Anticancer Drug Screen. Data for tumor model L1210 Leukemia (intraperitoneal) in B6D2F1 (BDF1) mice
Details: endpoint: mean survival time, higher = longer survival
Outline: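 Tumor was transplanted into mice, which were then dosed with test compound or vehicle alone. Survival was recorded for each group, and the treated figure was expressed relative to the control figure.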

[1] = dose: 12.5 mg/kg/injection, schedule: Q01DX009 (ip), vehicle: Klucel (hydroxypropylcellulose) (HPC)
[2] = dose: 25.0 mg/kg/injection, schedule: Q01DX009 (ip), vehicle: Klucel (hydroxypropylcellulose) (HPC)
[3] = dose: 25.0 mg/kg/injection, schedule: Q04DX002 (ip), vehicle: Klucel (hydroxypropylcellulose) (HPC)
[4] = dose: 50.0 mg/kg/injection, schedule: Q01DX009 (ip), vehicle: Klucel (hydroxypropylcellulose) (HPC)
[5] = dose: 100.0 mg/kg/injection, schedule: Q04DX003 (ip), vehicle: saline
[6] = dose: 200.0 mg/kg/injection, schedule: Q04DX003 (ip), vehicle: saline
[7] = dose: 400.0 mg/kg/injection, schedule: Q04DX003 (ip), vehicle: saline
[8] = dose: 100.0 mg/kg/injection, schedule: Q01DX009 (ip), vehicle: Klucel (hydroxypropylcellulose) (HPC)
[9] = dose: 100.0 mg/kg/injection, schedule: Q04DX003 (ip), vehicle: Klucel (hydroxypropylcellulose) (HPC)
[10] = dose: 200.0 mg/kg/injection, schedule: Q04DX003 (ip), vehicle: Klucel (hydroxypropylcellulose) (HPC)
[11] = dose: 100.0 mg/kg/injection, schedule: Q01DX001 (ip), vehicle: carboxymethylcellulose (CMC)
[12] = dose: 200.0 mg/kg/injection, schedule: Q01DX001 (ip), vehicle: carboxymethylcellulose (CMC)
[13] = dose: 400.0 mg/kg/injection, schedule: Q01DX001 (ip), vehicle: carboxymethylcellulose (CMC)
[14] = dose: 75.0 mg/kg/injection, schedule: Q01DX001 (ip), vehicle: saline
[15] = dose: 150.0 mg/kg/injection, schedule: Q01DX001 (ip), vehicle: saline
[16] = dose: 200.0 mg/kg/injection, schedule: Q01DX009 (ip), vehicle: Klucel (hydroxypropylcellulose) (HPC)

Measured: T/C

O=C(CBr)c1ccc(Br)cc1
inactive: [1] 97 % of control | [2] 97 % of control | [3] 100 % of control | [4] 93 % of control | dose: 50.0 mg/kg/injection, schedule: Q04DX002 (ip), vehicle: Klucel (hydroxypropylcellulose) (HPC) 89 % of control | dose: 100.0 mg/kg/injection, schedule: Q04DX002 (ip), vehicle: Klucel (hydroxypropylcellulose) (HPC) 96 % of control and 107 % of control | dose: 200.0 mg/kg/injection, schedule: Q04DX002 (ip), vehicle: Klucel (hydroxypropylcellulose) (HPC) 111 % of control | dose: 400.0 mg/kg/injection, schedule: Q04DX002 (ip), vehicle: Klucel (hydroxypropylcellulose) (HPC) 92 % of control

CCCCN(CCCC)CCNc1cc(C)nc(/N=C(\N)Nc2ccc(Cl)c(Cl)c2)n1
inactive: dose: 38.0 mg/kg/injection, schedule: Q01DX009 (ip), vehicle: other 91 % of control | dose: 38.0 mg/kg/injection, schedule: Q04DX003 (ip), vehicle: other 104 % of control | dose: 75.0 mg/kg/injection, schedule: Q01DX001 (ip), vehicle: other 101 % of control | dose: 75.0 mg/kg/injection, schedule: Q01DX009 (ip), vehicle: other 105 % of control | dose: 75.0 mg/kg/injection, schedule: Q04DX003 (ip), vehicle: other 114 % of control | dose: 150.0 mg/kg/injection, schedule: Q01DX001 (ip), vehicle: other 103 % of control | dose: 150.0 mg/kg/injection, schedule: Q04DX003 (ip), vehicle: other 87 % of control | dose: 300.0 mg/kg/injection, schedule: Q01DX001 (ip), vehicle: other 95 % of control

CCCCCCCCCCCC[N+](C)(C)C(C)Cc1ccccc1 (configuration not stated)
inactive: dose: 10.0 mg/kg/injection, schedule: Q01DX001 (ip), vehicle: saline 98 % of control | dose: 20.0 mg/kg/injection, schedule: Q01DX001 (ip), vehicle: saline 98 % of control

CCC[CH2][Sn]([Cl])([Cl])[CH2]CCC.c1ccncc1
inactive: dose: 3.0 mg/kg/injection, schedule: Q01DX009 (ip), vehicle: Klucel (hydroxypropylcellulose) (HPC) 93 % of control | dose: 6.0 mg/kg/injection, schedule: Q01DX009 (ip), vehicle: Klucel (hydroxypropylcellulose) (HPC) 107 % of control | dose: 12.0 mg/kg/injection, schedule: Q01DX009 (ip), vehicle: Klucel (hydroxypropylcellulose) (HPC) 92 % of control | [1] 87 % of control | dose: 12.5 mg/kg/injection, schedule: Q04DX002 (ip), vehicle: Klucel (hydroxypropylcellulose) (HPC) 91 % of control | [3] 106 % of control

CCOC(=O)CN1CCN2C(=O)N(CC)CCC2C1 (configuration not stated)
inactive: [5] 95 % of control | [6] 90 % of control | [7] 101 % of control

CC1(C)C(OC=O)C(C)(C)C1OC=O (configuration not stated)
inactive: [2] 100 % of control | [4] 93 % of control | [8] 94 % of control | [9] 96 % of control | [10] 98 % of control

N=C1c2ccccc2-c2nc3ccccc3c(=Nc3ccccc3C(=O)O)n21
inactive: dose: 100.0 mg/kg/injection, schedule: Q04DX002 (ip), vehicle: saline 89 % of control | dose: 200.0 mg/kg/injection, schedule: Q04DX002 (ip), vehicle: saline 86 % of control | dose: 400.0 mg/kg/injection, schedule: Q04DX002 (ip), vehicle: saline 89 % of control

CCCCNCCO
inactive: dose: 25.0 mg/kg/injection, schedule: Q01DX009 (ip), vehicle: saline 96 % of control | dose: 50.0 mg/kg/injection, schedule: Q01DX009 (ip), vehicle: saline 100 % of control | dose: 100.0 mg/kg/injection, schedule: Q01DX009 (ip), vehicle: saline 115 % of control

O=S1(=O)c2ccccc2C2CC=CCC21 (configuration not stated)
inactive: dose: 50.0 mg/kg/injection, schedule: Q01DX001 (ip), vehicle: carboxymethylcellulose (CMC) 98 % of control | [11] 98 % of control | [12] 98 % of control | [13] 93 % of control

C=COC(=O)NC(C(=O)O)C(C)CC (configuration not stated)
inactive: [14] 111 % of control | [15] 103 % of control

CCN1/C(=C/C(C)=C/c2[se]c3ccc(C)cc3[n+]2CC)[Se]c2ccc(C)cc21
inactive: dose: 2.0 mg/kg/injection, schedule: Q01DX001 (ip), vehicle: other 109 % of control | dose: 4.0 mg/kg/injection, schedule: Q01DX001 (ip), vehicle: other 114 % of control

Cc1ccc(S(=O)(=O)N2CCCC(=O)c3ccccc32)cc1
inactive: [11] 107 % of control | [12] 100 % of control | [13] 102 % of control

C=CCN(C)c1ccc(C(=O)OC)cc1
inactive: [11] 102 % of control | [12] 94 % of control | [13] 100 % of control

Cc1cc2nc(N)[nH]c2cc1C
inactive: dose: 12.5 mg/kg/injection, schedule: Q04DX002 (ip), vehicle: saline + alcohol 96 % of control | dose: 25.0 mg/kg/injection, schedule: Q04DX002 (ip), vehicle: saline + alcohol 96 % of control | dose: 50.0 mg/kg/injection, schedule: Q04DX002 (ip), vehicle: saline + alcohol 100 % of control

CCCCCCN(CCCCCC)C(=S)[S-].CCCCCCN(CCCCCC)C(=S)[S-].[Zn]
inactive: [14] 112 % of control | [15] 104 % of control | dose: 300.0 mg/kg/injection, schedule: Q01DX001 (ip), vehicle: saline 103 % of control

CNCCc1cc2c(cc1C=O)OCO2
inactive: [14] 96 % of control | [15] 106 % of control

Cc1ccc(OCCOc2ccc(NC(=O)CC(=O)c3cccc([N+](=O)[O-])c3)cc2)cc1
inactive: [8] 100 % of control | [9] 95 % of control | [16] 103 % of control | [10] 98 % of control | dose: 400.0 mg/kg/injection, schedule: Q01DX009 (ip), vehicle: Klucel (hydroxypropylcellulose) (HPC) 97 % of control | dose: 400.0 mg/kg/injection, schedule: Q04DX003 (ip), vehicle: Klucel (hydroxypropylcellulose) (HPC) 97 % of control

COc1ccc2ncc(CO)cc2c1
inactive: [5] 96 % of control | [6] 98 % of control | [7] 112 % of control

Cc1ccc(C2(C(=O)O)CCCCC2)cc1
inactive: [4] 96 % of control | [8] 90 % of control | [9] 102 % of control | [16] 88 % of control | [10] 98 % of control

CC(Cc1ccccc1)Cc1ccccc1
inactive: dose: 100.0 mg/kg/injection, schedule: Q04DX003 (ip), vehicle: saline with Tween-80 96 % of control | dose: 200.0 mg/kg/injection, schedule: Q04DX003 (ip), vehicle: saline with Tween-80 88 % of control | dose: 400.0 mg/kg/injection, schedule: Q04DX003 (ip), vehicle: saline with Tween-80 98 % of control
